Read-outs that look alike come from different tables or passages of the source. *1 amine or outer side, *2 acyl side, *3 side chain or, on linkers, in order; H or OH if unused. Where no end group is shown, it is not given here. Side-chain parts run from the residue outwards. [ ]: non-standard residue; d: D form. The star is where a group is joined. C18 diacid = O=C(O)CCCCCCCCCCCCCCCCC(=O)*; γGlu = O=C(O)[C@H](CCC(=O)[*:2])N[*:1]; AEEA = NCCOCCOCC(=O)O; Aib = CC(C)(N)C(=O)O
Key:
Assay type in all cases: cell-based
human GIPR = biological target: T1, human GIPR (Homo sapiens, UniProt P48546); assay: cAMP assay (HitHunter) in transiently transfected COS-7 cells expressing human GIPR
T1 construct: host or cells: COS-7
T1 sequence (P48546 22-466): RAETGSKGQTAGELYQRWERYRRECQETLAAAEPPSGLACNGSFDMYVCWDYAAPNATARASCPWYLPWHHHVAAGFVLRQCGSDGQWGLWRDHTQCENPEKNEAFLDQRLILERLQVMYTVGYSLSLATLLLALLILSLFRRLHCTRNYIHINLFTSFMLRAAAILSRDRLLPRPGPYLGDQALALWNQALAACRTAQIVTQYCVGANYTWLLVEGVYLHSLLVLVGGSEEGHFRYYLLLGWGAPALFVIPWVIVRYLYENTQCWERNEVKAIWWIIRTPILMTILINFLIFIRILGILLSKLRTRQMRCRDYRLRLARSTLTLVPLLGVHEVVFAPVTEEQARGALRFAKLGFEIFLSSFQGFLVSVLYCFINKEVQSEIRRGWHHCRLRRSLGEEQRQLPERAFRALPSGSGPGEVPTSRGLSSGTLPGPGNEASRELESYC

human GLP-2R = biological target: T2, human GLP-2R (Homo sapiens, UniProt O95838); assay: cAMP assay (HitHunter) in transiently transfected COS-7 cells expressing human GLP-2R; settings: for EC50: cAMP, COS-7 cells, human GLP-2R, read-out: EC50 (nM) GLP-2R
T2 construct: host or cells: COS-7
T2 sequence (O95838 1-553): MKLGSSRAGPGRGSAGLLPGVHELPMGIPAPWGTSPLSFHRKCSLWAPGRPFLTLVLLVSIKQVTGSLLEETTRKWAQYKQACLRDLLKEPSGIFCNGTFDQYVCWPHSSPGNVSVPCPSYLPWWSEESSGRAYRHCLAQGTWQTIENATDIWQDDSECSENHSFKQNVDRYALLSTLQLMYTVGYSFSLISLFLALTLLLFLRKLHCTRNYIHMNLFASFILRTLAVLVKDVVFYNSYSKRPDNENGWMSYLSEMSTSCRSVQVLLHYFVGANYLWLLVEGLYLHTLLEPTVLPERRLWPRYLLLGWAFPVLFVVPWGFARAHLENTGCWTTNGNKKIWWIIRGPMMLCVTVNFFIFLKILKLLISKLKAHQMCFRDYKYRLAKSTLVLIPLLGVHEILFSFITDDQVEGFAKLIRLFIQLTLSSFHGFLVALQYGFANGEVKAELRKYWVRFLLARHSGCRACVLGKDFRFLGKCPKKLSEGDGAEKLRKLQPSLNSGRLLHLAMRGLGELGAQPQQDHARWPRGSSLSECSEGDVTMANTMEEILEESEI
Procedure: The next day the assay was initiated by washing with HEPES buffered saline (HBS) and followed by an incubation step with assay buffer (HBS added 1 mM isobutyl-1-methylxanthine (IBMX)) for 30 min at 37° C. The ligands were then added and incubated for an additional 30 min at 37° C. After ligand incubation, the HitHunter® CAMP assay (Eurofins DiscoverX, Fremont, […] USA) was carried out according to the manufacturer's instructions. […] The potencies (EC50 values) were determined by nonlinear regression using GraphPad Prism 9 (San Diego, California, USA). Sigmoid curves were fitted logistically. The efficacies (Emax values) were determined by normalization to the highest concentration applied of the endogenous ligand for each receptor.

human GLP-1R = biological target: T3, human GLP-1R (Homo sapiens, UniProt P43220); assay: cAMP assay (HitHunter) in transiently transfected COS-7 cells expressing human GLP-1R
T3 construct: host or cells: COS-7

human SNAP-tagged GIPR = biological target: T4, human SNAP-tagged GIPR (Homo sapiens, UniProt P48546); assay: Receptor internalization assay, HEK293A cells expressing human SNAP-tagged GIPR; settings: for GIPR internalization (in words): compared to native GIP; for Relative hGIPR internalization (%): relative to hGIP 1-42 = 100
T4 construct: host or cells: HEK293A
T4 sequence (P48546 22-466): T1 sequence (P48546 22-466)

[1] = COS-7, normalized to highest concentration of the endogenous ligand, read-out: Efficacy GIPR (Emax)
[2] = COS-7, normalized to highest concentration of the endogenous ligand, read-out: Efficacy GLP-2R (Emax)
[3] = COS-7, normalized to highest concentration of the endogenous ligand, read-out: Efficacy GLP-1R (Emax)
[4] = AUC of sigmoid curves up to 1 μM, 60 minutes at 37° C.

T3 sequence (P43220 24-463): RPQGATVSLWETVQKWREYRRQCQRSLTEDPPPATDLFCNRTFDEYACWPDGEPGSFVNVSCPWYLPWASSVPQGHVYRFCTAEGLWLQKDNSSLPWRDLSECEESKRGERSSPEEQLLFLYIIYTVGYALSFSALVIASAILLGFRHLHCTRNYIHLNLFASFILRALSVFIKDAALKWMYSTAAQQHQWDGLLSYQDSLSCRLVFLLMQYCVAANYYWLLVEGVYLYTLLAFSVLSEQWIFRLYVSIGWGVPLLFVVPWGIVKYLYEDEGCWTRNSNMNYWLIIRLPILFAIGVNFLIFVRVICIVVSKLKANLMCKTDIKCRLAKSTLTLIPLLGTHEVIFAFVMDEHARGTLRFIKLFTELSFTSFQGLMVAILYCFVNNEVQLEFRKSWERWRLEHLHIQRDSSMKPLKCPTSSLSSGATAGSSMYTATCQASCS

Row | Compound | Emax (human GIPR; [1]) [%] | Emax (human GLP-2R; [2]) [%] | EC50 (human GLP-2R) [nM] | Emax (human GLP-1R; [3]) [%] | EC50 (human GLP-1R; cAMP, COS-7 cells, human GLP-1R, read-out: EC50 (nM) GLP-1R) [nM] | Absolute hGIPR internalization (AUC) (human SNAP-tagged GIPR; [4]) | GIPR internalization (in words) (human SNAP-tagged GIPR) | Relative hGIPR internalization (%) (human SNAP-tagged GIPR) | Emax (human GIPR; COS-7, read-out: Efficacy GIPR (Emax)) [%] | Emax (human GLP-2R; COS-7, read-out: Efficacy GLP-2R (Emax)) [%] | EC50 (human GLP-1R) [nM] | Emax (human GLP-1R; COS-7, read-out: Efficacy GLP-1R (Emax)) [%] | Absolute hGIPR internalization (AUC) (human SNAP-tagged GIPR) | EC50 (human GIPR; cAMP, COS-7 cells, human GIPR) [nM] | EC50 (human GLP-1R; cAMP, COS-7 cells, human GLP-1R, read-out: logEC50 GLP-1R (converted)) [nM]
1 | HADGTFTSDYST[Aib]LDKLAARDFINWLIQTKGKKNDWKHNITQK([AEEA-AEEA-γGlu-C18 diacid])-OH [Compound 27] | 124 | 85 | 3.2 | 115 | 0.05 | 9.0 | internalization of the GIPR to a higher extent | 24 |  |  |  |  |  |  | 
2 | HADGTFTSDYSTILDKK([AEEA-AEEA-γGlu-C18 diacid])AARDFINWLIQTKGKKNDWKHNITQ [Compound 23] |  |  |  |  |  |  |  | 3 | 82 | 95 | 0.05 | 105 | 1.2 |  | 
3 | HADGTFTSDYSTILDKLAARDFINWLIQTKGKKNDWKHNITQK([AEEA-AEEA-γGlu-C18 diacid])-OH [Compound 26] | 106 | 112 |  | 103 |  | 16.4 | internalization of the GIPR to a higher extent | 44 |  |  |  |  |  | 0.316 | 0.0398
4 | CCCCCCCCCC(=O)NCCCC[C@H](NC(=O)[C@@H](NC(=O)[C@@H](NC(=O)[C@H](CCCCN)NC(=O)[C@@H](NC(=O)[C@H](CCC(N)=O)NC(=O)[C@@H](NC(=O)[C@H](CC(C)C)NC(=O)[C@H](Cc1c[nH]c2ccccc12)NC(=O)[C@H](CC(N)=O)NC(=O)[C@@H](NC(=O)[C@H](Cc1ccccc1)NC(=O)[C@H](CC(=O)O)NC(=O)[C@H](CCCNC(=N)N)NC(=O)[C@H](C)NC(=O)[C@H](C)NC(=O)[C@H](CC(C)C)NC(=O)[C@H](CC(N)=O)NC(=O)[C@H](CC(=O)O)NC(=O)[C@H](CC(C)C)NC(=O)[C@@H](NC(=O)[C@@H](NC(=O)[C@H](CO)NC(=O)[C@H](Cc1ccc(O)cc1)NC(=O)[C@H](CC(=O)O)NC(=O)[C@H](CO)NC(=O)[C@@H](NC(=O)[C@H](Cc1ccccc1)NC(=O)[C@@H](NC(=O)CNC(=O)[C@H](CC(=O)O)NC(=O)C(C)(C)NC(=O)[C@@H](N)Cc1c[nH]cn1)[C@@H](C)O)[C@@H](C)CC)[C@@H](C)O)[C@@H](C)CC)[C@@H](C)CC)[C@@H](C)CC)[C@@H](C)O)[C@@H](C)CC)[C@@H](C)O)C(N)=O [Compound 1] | 93 | 96 | 2 | 101 |  | 5.3 |  |  |  |  |  |  |  |  | 

From patent US20250304644A1, “PEPTIDES TRIPLE AGONISTS OF GIP, GLP-1 AND GLP-2” (BAINAN BIOTECH APS, priority 2021, published 2025)
